The test system of data set [1] is S. cerevisiae wild type parental AD1-9 strain. The experiment in a line: Yeast growth inhibition on glycerol medium, wild type. In kind it is cell-based, Saccharomyces cerevisiae. Conditions: 1 mM, 100, 5 and 1 μM. The procedure: Three S. cerevisiae strains were used: M221Q and M221F cytochrome b mutants and wild type. They share the same nuclear genetic background deriving from AD1-9 (kindly given by M. Ghislain, UCL, Belgium). AD1-9 harbors multiple deletions in the ABC transporter genes that render the strain more sensitive to drugs than standard yeast strains^S65.
Protocol: Yeast strains were grown over 48 hours at 33° C. in liquid YPG medium [1% yeast extract, 2% (wt/vol) peptone, and 3% (vol/vol) glycerol). Cultures were diluted to an OD600 of 0.05 and grown for 2 hrs. Cultures were then combined with YPG containing 6% melted agar for a total volume of 15-20 mL and poured onto OmniTray single-well rectangular plates that measured 86 mm by 128 mm (ThermoScientific). Filter paper disks (7 mm diameter, […]) were placed onto the cooled agar plates. […] A single disk with DMSO on each plate was used as a control. Plates were incubated at 33° C. Images were obtained after 4 days using GelDoc XR Imaging System (BioRad) and Quantity One software. Drug effect was assessed by the presence and size of a zone of inhibition around the disks.

Data set [2] is described as follows: Aqueous kinetic solubility pH 7.4. In kind it is physicochemical. Particulars: for solubility kinetic: PBS pH 7.4.
Data set [3] in a line: Microsomal metabolic stability, mouse. Type of data set: in vitro ADME.
The test system of data set [4] is T. gondii bradyzoites (EGS strain). The experiment in a line: EGS strain bradyzoite assay (cysts in HFF, dolichos/BAG1 staining). In kind it is cell-based, Toxoplasma gondii. As to the method:
(§1) HFF cells were grown in IMDM (1×, [+] glutamine, [+] 25 mM HEPES, [+] Phenol red, 10% FBS, [Gibco, Denmark]) on removable, sterile glass disks in the bottom of a clear, flat-bottomed 24-well plate. Cultures were infected with 3×10^4 parasites (EGS strain) per well, in 0.5 mL media and plate was returned to incubator at 37° C. overnight. The following day, the media was removed and clear IMDM and compounds were added to making various concentrations of the drug, to a total volume of 0.5 mL. Two wells were filled with media only, as a control. Plates were returned to the 37° C. incubator for 72 hours.
Efficacy was determined following fixation. Staining was used to determine the numbers of cysts in cultures without and with treatment with the test compounds. Cells were fixed using 4% paraformaldehyde and stained with Fluorescein-labeled Dolichos Biflorus Agglutinin, DAPI, and anti-BAG1, and anti-SAG1. Disks were removed and mounted onto glass slides and visualized using microscopy (Nikon Tl7). Slides were also scanned using a CRi Pannoramic Scan Whole Slide Scanner and viewed using Panoramic Viewer Software.
as §1, with “[gibco,” for “[Gibco,”, “2” for “Two”, “72 hours, and checked once every 24” for “72”, “hours. If tachyzoites were visible in the control before 72 hours, the cells were fixed and stained.” for “hours.”
Cells were fixed using 4% paraformaldehyde and stained with Fluorescein-labeled Dolichos Biflorus Agglutinin, DAPI, and BAG1. Disks were removed and mounted onto glass slides and visualized using microscopy (Nikon Tl7). Slides were scanned using a CRi Pannoramic Scan Whole Slide Scanner and viewed using Panoramic Viewer Software. Effects of the compounds were quantified by counting cysts in the controls and treated cells. Cysts and persisting organisms were counted in a representative field of view and then multiplied by a factor determined by the total area of the disk in order to estimate the number of cysts and organisms in each condition.
HFF cells were grown in IMDM (1×, [+] glutamine, [+] 25 mM HEPES, [+] Phenol red, 10% FBS, [gibco, Denmark]) on removable, sterile glass disks in the bottom of a clear, flat-bottomed 24-well plate. Cultures were infected with 3×10^4 parasites (EGS strain) per well, in 0.5 mL media and plate was returned to incubator at 37° C. overnight. The following day, the media was removed and clear IMDM and compounds were added to making various concentrations of the drug, to a total volume of 0.5 mL. 2 wells were filled with media only, as a control. Plates were returned to the 37° C. incubator for 72 hours, and checked once every 24 hours. If tachyzoites were visible in the control before 72 hours, the cells were fixed and stained. Cells were fixed using 4% paraformaldehyde and stained with Fluorescein-labeled Dolichos Biflorus Agglutinin, DAPI, and BAG1. Disks were removed and mounted onto glass slides and visualized using microscopy (Nikon Tl7). Slides were scanned using a CRi Pannoramic Scan Whole Slide Scanner and viewed using Panoramic Viewer Software. Effects of the compounds were quantified by counting cysts in the controls and treated cells. Cysts and persisting organisms were counted in a representative field of view and then multiplied by a factor determined by the total area of the disk in order to estimate the number of cysts and organisms in each condition. Data was collected using Gen5 software. IC50 was calculated by graphical analysis in Excel.

A short description of data set [5]: Microsomal metabolic stability, human. Type of data set: in vitro ADME.
The test system of the next data set is RH-YFP. The experiment in a line: Assessment of compound degradation and microbicidal effect on Toxoplasma. In kind it is cell-based, Toxoplasma gondii. The procedure:
HFF were cultured in a 96-well plate and infected with RH-YFP as described above on Day 0, 20 μL of compound was added to 9 wells for each compound and concentration (3 conditions, 3 wells per condition). In condition I, media was removed and replaced with fresh media on Day 3. In condition II, media was removed and replaced with fresh media and more compound on Day 3. In condition III, media was not replaced on Day 3, nor was the compound refreshed. On Day 6, media was removed and replaced with clean media in all wells. On Day 3, 6, and 9 plate was read in the fluorimeter and analyzed graphically in Prism (GraphPad Software).

Another data set is described as follows: in vitro. Particulars: dog, MDCK-MDR1. Type of data set: in vitro ADME.
The next data set concerns MDR1. The experiment in a line: in vitro. Type of data set: in vitro ADME. Particulars: dog, MDCK-MDR1, MDCK-MDR1 Efflux Ratio.
Data set [6] deals with human foreskin fibroblasts (HFF). The experiment in a line: Cytotoxicity assay with WST-1 in HFF. Particulars: 10 μM and 50 μM, WST-1. In kind it is cell-based. The procedure:
(§2) Toxicity assays were conducted using WST-1 cell proliferation reagent (Roche). HFF were grown on a flat, clear-bottomed, black 96-well plate. Confluent HFF were treated with inhibitory compounds at concentrations equal to those being tested in challenge assays. Compounds were diluted in IMDM-C, and 20 μl were added to each designated well, with triplicates for each condition. A gradient of 2 fold-decreasing concentrations of DMSO in clear IMDM-C was used as a control. The plate was incubated for 72 hours at 37° C. 10 μl of WST-1 reagent (Roche) were added to each well and the cells were incubated for 30 to 60 minutes. Absorbance was read using a fluorometer at 420 nm. A higher degree of color change (and absorbance) indicated mitochondrial activity and cell viability.
as §2, with “(Roche) as described in Fomovska, et. al. (18,19).” for “(Roche).”, “of 10 μM and 50 μM.” for “equal to those being tested in challenge assays.”, “DMSO from 10% to 0%” for “DMSO”, “fluorimeter” for “fluorometer”

The nature of data set [7]: Cytotoxicity assay with WST-1 in HFF. In kind it is cell-based. Particulars: human, human foreskin fibroblasts (HFF); read-out: HFF Toxicity CC50. As to the method: as §2
as §2, with “(Roche) as described in Fomovska, et. al. (18,19).” for “(Roche).”, “of 10 μM and 50 μM.” for “equal to those being tested in challenge assays.”, “DMSO from 10% to 0%” for “DMSO”, “fluorimeter” for “fluorometer”

Data set [8] concerns P. falciparum strains D6, TM91-C235, W2, C2B. The experiment in a line: Malaria SYBR Green I-Based Fluorescence (MSF) Assay. In kind it is cell-based, Plasmodium falciparum. Particulars: Plasmodium falciparum, read-out: P. falciparum IC50. The procedure:
Testing of P. falciparum: D6 is a drug sensitive strain from Sierra Leone, C235 is a multi-drug resistant strain from Thailand, W2 is a chloroquine resistant strain from Thailand, and C2B has resistance to a variety of drugs including atovaquone.
D6 is a drug sensitive strain from Sierra Leone, C235 is a multi-drug resistant strain from Thailand, W2 is a chloroquine resistant strain from Thailand, and C2B has resistance to a variety of drugs including atovaquone. These assays were performed as described.
(§3) Compound activity against P. falciparum, a causative agent of malaria, was tested using the Malaria SYBR Green I—Based Fluorescence (MSF) Assay. This; microtiter plate drug sensitivity assay uses the presence of malarial DNA as a measure of parasitic proliferation in the presence of antimalarial drugs or experimental compounds based on modifications of previously described methods by Plouffe et al (20) and Johnson et al. As the intercalation of SYBR Green I dye and its resulting fluorescence is relative to parasite growth, a test compound that inhibits the growth of the parasite will result in a lower fluorescence.
Selected compounds were examined for activity against four strains of P. falciparum: D6 (CDC/Sierra Leone), a drug-sensitive strain readily killed by chloroquine, TM91-C235, a multi-drug resistant strain resistant to chloroquine, W2, a chloroquine resistant strain from Thailand, and C2B has resistance to a variety of drugs including atovaquone.
D6 is a drug sensitive strain from Sierra Leone, C235 is a multi-drug resistant strain from Thailand, W2 is a chloroquine resistant strain from Thailand, and C2B has resistance to a variety of drugs including atovaquone. These assays were performed using standard protocols.
as §3, with “known in the art.” for “by Plouffe et al (20) and Johnson et al.”, “fluorescence. Selected compounds were examined for activity against four strains of P. falciparum: D6 (CDC/Sierra Leone), a drugsensitive strain readily killed by chloroquine, TM91-C235, a multi-drug resistant strain resistant to chloroquine, W2, a chloroquine resistant strain from Thailand, and C2B has resistance to a variety of drugs including atovaquone.” for “fluorescence.”

A further data set in a line: FaSSIF solubility pH 6.5. Type of data set: physicochemical. Conditions: pH 6.5.

Values after ≈ are worked out from the molar mass of the structure shown. Values joined by “and” are separate entries in the source; they are usually repeats but may differ in a detail not shown here. Equal entries are not always repeated. “Also recorded” adds a separate entry of the source. Where two headings read alike, the source gives them in different places. Bounds are passed on as bounds.

Take `Cc1[nH]c2ccccc2c(=O)c1-c1ccc(Oc2ccc(OC(F)(F)F)cc2)cc1` [ELQ271, 2-methyl-3-(4-(4-(trifluoromethoxy)phenoxy)phenyl) quinolin-4(1H)-one, reference compound]: the “growth inhibition of wild type yeast” value in data set [1] is given as “effective”. This molecule showed a solubility in data set [2] (aqueous buffer, kinetic from dmso stock, 100 mM Phosphate Buffer (pH 7.4)) of 0.15 µM (≈ 0.0617 µg/mL). The “Mouse liver microsomes T1/2” value in data set [3] is 7.4688 h. Besides, the “reduction of EGS cysts in vitro” value in [4] (10 μM) was “reduce the EGS cysts; also recorded: inhibited EGS in vitro”.

As for `Cc1[nH]c2c(c(=O)c1-c1ccc(Oc3ccc(Cl)cc3)cc1)CCCC2` [JAG050, 3-(4-(4-chlorophenoxy)phenyl)-2-methyl-5,6,7,8-tetrahydroquinolin-4(1H)-one], the “Human liver microsomes T1/2” value in data set [5] amounted to 1.651 h. This molecule showed a solubility (kinetic) in data set [2] (PBS, pH 7.4, aqueous buffer, kinetic from dmso stock) of 16 µM (≈ 5.85 µg/mL). Besides, the “Mouse liver microsomes T1/2” value in data set [3] was found to be 1.142 h. Also, the “compound degradation over time” value in the data set with RH-YFP (6-day exposure in culture) was “did not appear that the compound was being degraded over time”. Also, the “microbicidal effect” value in the data set on RH-YFP (RH-YFP, media replaced) is reported as “Neither compound was found to be microbicidal”. In addition, in “in vitro”, the Papp A→B was above 10 ×10⁻⁶ cm/s. Also, the efflux ratio in the data set on MDR1 was below 1.5. Besides, in data set [6], the “toxicity to human foreskin fibroblasts” value is reported as “no toxicity”. For the same molecule, the “reduction in the number of true cysts and small organisms” value in data set [4] (1 μM and 10 μM, EGS) is listed as “statistically significant reduction”. The Pseudocysts in [4] (part a, 1 μM) was found to be 23.25 ± 10.31; in [4] (part a, 10 μM), 20.5 ± 2.9; in [4] (part b, 1 μM) it was 2269; in data set [4] (part b, 10 μM), 1921. Moreover, the Small organisms in data set [4] (part a, 1 μM) was 58 ± 24; in data set [4] (part a, 10 μM), 31 ± 16; in [4] (part b, 1 μM) it was 5086; in [4] (part b, 10 μM) it was 3018. Further, the “True Cysts” value was 0.25 ± 0.5 in [4] (part a, 1 μM); 1 ± 0.82 in data set [4] (part a, 10 μM); 29 in data set [4] (part b, 1 μM); 88 in [4] (part b, 10 μM).

As for `Cc1[nH]c2ccccc2c(=O)c1-c1ccc(Oc2ccc(OC(F)(F)F)cc2)cc1` [ELQ 271, reference compound], the “Human microsomal stability T1/2” value in data set [5] was 2.87 h and 2.865 h. In addition, the solubility (kinetic) in data set [2] was determined as 0.15 µM (≈ 0.0617 µg/mL). The “Mouse microsomal stability T1/2” value in data set [3] was above 3.33 h. In [3] (mouse, liver microsomes, read-out: Mouse microsomal stability T1/2), the half-life was above 3.33 h. In [7], the cytotoxic concentration (CC50) at 72 h was 20000 nM. Also, the half-maximal inhibitory concentration (IC50) was 130 nM in data set [8] (C2B strain (multi-drug resistant, atovaquone resistant)); 30 nM in data set [8] (D6 strain (drug sensitive)); 90 nM in data set [8] (TM91C235 strain (multi-drug resistant)); 100 nM in [8] (W2 strain (chloroquine resistant)); 1000 nM in [4] (Toxoplasma gondii, EGS strain, read-out: T. gondii Bradyzoite IC50). Further, the solubility in the data set “FaSSIF solubility pH 6.5” amounted to 3.4 µM (≈ 1.4 µg/mL).

(Values after patent publication US11414385B2, “Compounds and methods for treating, detecting, and identifying compounds to treat apicomplexan parasitic diseases” (The University of Chicago, priority 2015, dated 2022).)
